The source of these data is US9663526B2, “Aminopyrimidinyl compounds” (Pfizer Inc., priority 2014, dated 2017).

Assay [1] concerns the target recombinant human kinase domain of JAK2 (Homo sapiens (Human), UniProt O60674). Kind of assay: JAK Caliper enzyme assay at 1 mM ATP (JAK2).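 Note: microfluidic mobility-shift read-out of fluorescent synthetic peptide phosphorylation, percent product converted from peak heights, room temperature, DMSO-only wells as uninhibited baseline, inhibition curve fit.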 Format: biochemical.
Assay [2] concerns the target recombinant human kinase domain of JAK1 (Homo sapiens (Human), UniProt P23458). Put plainly: JAK Caliper enzyme assay at 1 mM ATP (JAK1).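 Note: microfluidic mobility-shift readout of synthetic fluorescent peptide phosphorylation, percent product converted from peak height, inhibition relative to DMSO-only wells as uninhibited baseline, room temperature incubation.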 Format: biochemical. Particulars: 1 mM ATP; read-out: IC50 (nM) JAK1.
Assay [3] relates to interferon alpha signalling (TYK2 and JAK1), STAT3 phosphorylation. Put plainly: Human whole blood INFα induced STAT3 phosphorylation assay.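 Note: flow cytometry with anti-pSTAT3 staining, signal as percent-positive × mean fluorescence, baseline from unstimulated wells, 11-point dilution series, IC50 as inhibition of pSTAT3.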 Type of assay: cell-based. Particulars: compound 60 minutes at 37° C., IFNα 5000 U/ml for 15 minutes, pSTAT3 in lymphocyte population by flow cytometry, read-out: HWB IFN alpha IC50. (A flow cytometer gives signals particle by particle.)
The target in assay [4] is recombinant human kinase domain of JAK3 (Homo sapiens (Human), UniProt P52333). Kind of assay: JAK Caliper enzyme assay at 1 mM ATP (JAK3).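 Note: microfluidic mobility-shift readout of synthetic peptide phosphorylation, percent product converted from peak heights, normalized to DMSO-only wells as uninhibited baseline, room temperature incubation.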 Format: biochemical. To be noted: 1 mM ATP; read-out: IC50 (nM) JAK3.
recombinant human kinase domain of JAK3, sequence (P52333 822-1111): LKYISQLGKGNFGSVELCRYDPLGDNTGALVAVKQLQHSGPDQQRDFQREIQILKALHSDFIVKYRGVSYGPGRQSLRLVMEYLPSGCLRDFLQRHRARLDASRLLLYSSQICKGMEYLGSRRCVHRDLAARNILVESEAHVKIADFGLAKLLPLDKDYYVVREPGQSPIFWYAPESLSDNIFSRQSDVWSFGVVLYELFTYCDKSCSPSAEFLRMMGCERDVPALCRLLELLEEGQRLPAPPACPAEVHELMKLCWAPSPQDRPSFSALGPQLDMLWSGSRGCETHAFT
Assay [5] has as its target recombinant human kinase domain of TYK2 (Homo sapiens (Human), UniProt P29597). Kind of assay: JAK Caliper enzyme assay at 1 mM ATP (TYK2).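 Note: microfluidic mobility-shift readout of synthetic peptide phosphorylation by TYK2, tuned to 20–30% conversion at room temperature, reaction stopped with EDTA, DMSO-only wells as uninhibited baseline.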 Type of assay: biochemical.

recombinant human kinase domain of JAK2, sequence (O60674 849-1124): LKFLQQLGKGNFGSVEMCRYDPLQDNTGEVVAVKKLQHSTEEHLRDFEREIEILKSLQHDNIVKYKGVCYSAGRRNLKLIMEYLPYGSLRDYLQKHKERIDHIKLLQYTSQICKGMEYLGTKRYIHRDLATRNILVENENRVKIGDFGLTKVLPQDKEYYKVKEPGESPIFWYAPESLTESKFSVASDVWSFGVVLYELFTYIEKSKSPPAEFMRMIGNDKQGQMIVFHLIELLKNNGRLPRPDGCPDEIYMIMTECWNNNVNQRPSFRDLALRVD
recombinant human kinase domain of TYK2, sequence (P29597 897-1176): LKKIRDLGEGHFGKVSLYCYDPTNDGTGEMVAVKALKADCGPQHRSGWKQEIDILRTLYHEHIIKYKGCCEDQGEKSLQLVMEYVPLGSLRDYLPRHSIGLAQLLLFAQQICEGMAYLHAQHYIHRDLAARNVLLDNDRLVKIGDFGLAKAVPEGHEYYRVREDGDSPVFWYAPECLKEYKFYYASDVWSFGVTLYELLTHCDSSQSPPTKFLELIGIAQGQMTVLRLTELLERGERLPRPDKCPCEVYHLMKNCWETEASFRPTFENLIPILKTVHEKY
recombinant human kinase domain of JAK1, sequence (P23458 875-1153): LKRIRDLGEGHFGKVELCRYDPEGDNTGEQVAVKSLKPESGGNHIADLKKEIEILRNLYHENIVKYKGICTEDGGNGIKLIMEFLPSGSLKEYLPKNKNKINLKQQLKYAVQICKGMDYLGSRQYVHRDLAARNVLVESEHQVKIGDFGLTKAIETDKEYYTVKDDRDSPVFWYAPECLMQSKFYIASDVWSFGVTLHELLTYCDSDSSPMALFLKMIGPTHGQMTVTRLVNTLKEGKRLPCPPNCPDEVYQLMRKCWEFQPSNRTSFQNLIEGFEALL

As a reminder, the IC50 is the concentration that inhibits the measured activity by half. Consider `C[C@H](CO)c1ccc(Nc2nccc(N3C[C@H]4CC[C@@H](C3)N4C(=O)[C@@H]3CC3(F)F)n2)cn1` (single isomer, unassigned) [Example 12], for which the half-inhibitory concentration (IC50) in assay [1] is 80 nM; in assay [2], 79 nM; in assay [3] it was 88 nM; in assay [4], over 10000 nM; in assay [5], 28 nM.
